The record followed here is patent US20040054130A1, “Insulin potentiating peptides” (priority 2000, published 2004).

Square brackets hold non-standard residues; d marks the D form. Ends that are not written are not given here. Cha = N[C@@H](CC1CCCCC1)C(=O)O; Orn = NCCC[C@H](N)C(=O)O; βAla = NCCC(=O)O

Assay [1] deals with Zucker (fa/fa) rat hemidiaphragm muscle. Nature of the assay: In vitro glycogen synthesis (glucose incorporation into glycogen) in hemidiaphragm muscle with exogenous insulin. The arrangement: key to Activity: insulin-potentiating: improved activity compared to insulin alone; inactive: equal activity compared to insulin alone; insulin antagonist: reduced activity compared to insulin alone; *-**: increasing insulin-potentiating activity. Conditions: for insulin-potentiating activity on in vitro glycogen synthesis (in words): with 1 mU/ml exogenous insulin. The assay is classed as cell-based. As for the experimental part: In vitro insulin-potentiating effects of the synthetic peptide analogues were assessed by measuring the rates of exogenous glucose incorporation into glycogen in rat hemidiaphragms (Lim et al, 1992). Hemidiaphragms from overnight-fasted Zucker fatty(fa/fa) female rats were dissected, and divided into segments of approximate 35-50 mg each. Tissues from the same rat were used for all groups. The tissue was incubated in 2 ml of Krebs-Ringer bicarbonate (KRB) buffer (pH 7.4) containing [^14C]glucose (5.5 mM, final specific activity 0.05 mCi/mmol) under an atmosphere of 95% 02-5% CO2 at 37° C. for 1.5 hr. After incubation, tissues were removed, washed with cold buffer and blotted. Tissues were digested, the muscle glycogen was precipitated and the ^14C-radioactivity was counted in a Wallac 1410 liquid scintillation counter. The biological activity of peptide analogues was measured as the rate of mmol glucose incorporation into muscle glycogen/g tissue/hr.
The sensitivity of hemidiaphragm muscle tissue to insulin (0.1-100 mU/ml) on glycogen synthesis was first analyzed. The dose response curves for peptide analogues on the insulin-potentiating effect to glycogen synthesis were then measured using cumulative increasing concentrations (10^−3 10 μmol/ml) of peptides in the presence of insulin (1 mU/ml). The biological activity of each peptide analogue was measured as the rate of glucose incorporation into muscle glycogen (μmol/g tissue/hr), and represented by the mean±SEM from eight determinations.
To determine the insulin-potentiating effect of the peptide analogues, the rates of incorporation of glucose into muscle glycogen were measured. The rates of glycogen synthesis (μmol/g tissue/hr) were 0.52±0.05, 0.60±0.04, 1.27±0.06 and 1.52±0.07 inresponse to 0.33, 1, 3.33 and 10 mU/ml insulin respectively, as shown in FIG. 1.
The insulin-potentiating effect of the peptide analogues was then observed by studying their dose response. curves for glucose incorporation into glycogen in the presence of 1 mU/ml exogenous insulin. The effects of peptides 1, 3, 4, 6, 7, 8 and 10 were evident at doses higher than 0.01 μmol/ml, and continued to increase with increasing peptide concentration to 1 μmol/ml, as shown in FIGS. 2A and 2B.
The activity of each analogue was assessed by in vitro measurement of glycogen synthesis in muscle, as described above.

For assay [2], the system named is Zucker fatty (fa/fa) rats. Description: Basal blood glucose determination after i.p. peptide. It counts as in vivo, rat. The conditions noted are these: 10 μmol/kg body weight i.p., over 150 min, vs saline. As for the experimental part: Overnight-fasted Zucker fatty(fa/fa) female rats were anaesthetized with sodium pentobarbitone (60 mg/kg body weight). After 45 min, basal blood glucose samples were taken from the tail vein, followed immediately by intraperitoneal (i.p.) injection of saline (control) or the peptide analogue (test, 10 μmol/kg body weight) in 0.4 ml of saline. Blood samples were taken at 15, 30, 60, 90, 120, 150 minutes after injection, and the blood glucose level in each sample was measured immediately by the glucose oxidase method, using a YSI Model-2300 STAT glucose analyzer (Yellow Spring, Ohio). Six animals for each group were used.
The reduction of basal blood glucose levels in animals by different peptide analogues administered intraperitoneally (i.p.)at a dose of 10 μmol/kg body weight was measured for over 150 min.

The subject of assay [3] is normal male Wistar rats. Description: Intravenous insulin tolerance test (IVITT). It counts as in vivo, rat. Conditions: 5 μmol/kg i.v.; for Reduction in Blood Glucose: 0.1 U insulin/kg; for insulin-potentiating effect on decreasing blood glucose in IVITT (in words): from 30 min after commencement. The method, then: IVITTs (0.1 U insulin/kg body weight) were performed on overnight-fasted Wistar male rats as previously described (Lim et al, 1992). Blood samples were taken for glucose estimation at 15, 30, 45, 60 min after the commencement of the tests. Six animals in each group were used.
IVITTs were performed on normal male Wistar rats after a single intravenous (i.v.) injection of the hGH peptide analogues at a dose of 5 μmol/kg body weight. The insulin-potentiating effects of peptides 6, 7, 8 and 10 on decreasing blood glucose levels of treated animals became significant since 30 min after the commencement of the test. Bioactivity was retained when the Arg^8 or Phe^10 residue of Asu^11-hGH(6-13) peptide was substituted with Lys or Tyr respectively (1.92±0.17 or 1.62±0.18 vs. 1.65±0.12 mmol/L at 45 min), as shown in Table 3. However, no insulin-potentiating effect was observed when either Arg^8 or Phe^10 was substituted by Gly (0.92±0.08 or 1.08±0.08 mmol/L respectively vs. 1.00±0.10 mmol/L of control at 45 min). Asu^11-hGH(8-13) also elicited this insulin-potentiating effect, but with lower potency.

The mark [4] stands for this setting: Table 6 (corrected), summary of Table 5.
The mark [5] stands for this setting: Table 5, compared to insulin alone.

Regarding “Arg-Gly-Phe-Cha-NH2 (RGF[Cha]-NH2; N-terminus assumed; SMILES N=C(N)NCCC[C@H](N)C(=O)NCC(=O)N[C@@H](Cc1ccccc1)C(=O)N[C@@H](CC1CCCCC1)C(N)=O) [Peptide 2]”, the Activity entry in assay [1] (setting [4]) is reported as “antagonist”. Besides, the “hypoglycaemic effect (reduction of basal blood glucose level)” value in assay [2] (listed as Arg-Gly-Phe-Cha) is reported as “no hypoglycaemic effect”; in assay [2] (listed as peptide 2), “significant hypoglycaemic effects”.

In the case of “Arg-D-Ala-Phe-Tyr-NH2 (R[dA]FY-NH2; N-terminus assumed; SMILES C[C@@H](NC(=O)[C@@H](N)CCCNC(=N)N)C(=O)N[C@@H](Cc1ccccc1)C(=O)N[C@@H](Cc1ccc(O)cc1)C(N)=O) [Peptide 22]”, the result in assay [1] (setting [4]) was active.

As for RG[Cha]F-NH2 [Peptide 20], the Activity entry in assay [1] (setting [4]) is given as “antagonist”.

Take “Arg-Gly-Phe-Phe-NH2 (RGFF-NH2) [Peptide 1]”: the result in assay [1] (setting [4]) was active. Moreover, the “insulin-potentiating activity on in vitro glycogen synthesis (in words)” value (shortened to “insulin-potentiating activity”) in assay [1] is listed as “stimulated glycogen synthesis”. The “hypoglycaemic effect (reduction of basal blood glucose level)” value was “reduced basal blood glucose levels” in assay [2] (listed as Arg-Gly-Phe-Phe) and “significant hypoglycaemic effects” in assay [2] (listed as peptide 1).

Consider “Leu-Ser-Arg-Leu-Gly-Asu-Asn-Ala (LSRLGDNA-NH2; not fully specified; printed as Leu-Ser-Arg-Leu-Gly-Asu-Asn-Ala) [Peptide 11]”, for which the outcome in assay [1] (setting [5]) was inactive. Moreover, the “Reduction in Blood Glucose” value in assay [3] (15 min) stood at 0.68 ± 0.05 mmol/L; in assay [3] (30 min) it was 0.96 ± 0.06 mmol/L; in assay [3] (45 min), 1.08 ± 0.08 mmol/L; in assay [3] (60 min), 1.12 ± 0.06 mmol/L.

With “Arg-β-Ala-Phe-Phe (R[βAla]FF; not fully specified (C-terminus); printed as Arg-β-Ala-Phe-Phe) [Peptide 18]”, in assay [1] (setting [4]), the result was active.

In the case of “Arg-Leu-Phe-Asu-Asn-Ala (RLFDNA-NH2) [Peptide 6]”, the “insulin-potentiating activity” value in assay [1] is on record as “diminished insulin-potentiating effect”. The figures for the “hypoglycaemic effect (reduction of basal blood glucose level)” value in assay [2] and in assay [2] (listed as Asu^11-hGH(8-13) amide) were “significant hypoglycaemic effects” and “diminished insulin-potentiating effect”, respectively. In addition, the “insulin-potentiating effect on decreasing blood glucose in IVITT (in words)” value was “significant” in assay [3] and “lower potency” in assay [3] (listed as Asu^11-hGH(8-13)). The “Reduction in Blood Glucose” value stood at 0.93 ± 0.17 mmol/L in assay [3] (15 min), 1.58 ± 0.12 mmol/L in assay [3] (30 min), 1.50 ± 0.15 mmol/L in assay [3] (45 min) and 1.50 ± 0.19 mmol/L in assay [3] (60 min).

For the substance “Leu-Ser-Arg-Leu-Tyr-Asu-Asn-Ala (LSRLYDNA-NH2; not fully specified; printed as Leu-Ser-Arg-Leu-Tyr-Asu-Asn-Ala) [Peptide 10]”, the “insulin-potentiating effect on decreasing blood glucose in IVITT (in words)” value in assay [3] is given as “significant”. The “Reduction in Blood Glucose” value in assay [3] (15 min) turned out to be 1.03 ± 0.10 mmol/L; in assay [3] (30 min), 1.52 ± 0.12 mmol/L; in assay [3] (45 min), 1.62 ± 0.18 mmol/L; in assay [3] (60 min), 1.60 ± 0.34 mmol/L.

Take “Arg-Leu-Phe-Phe-NH2 (RLFF-NH2) [Peptide 4]”: the outcome in assay [1] (setting [4]) was active.

In the case of “insulin: exogenous insulin tested alone on hemidiaphragm glycogen synthesis (FIG. 1)”, the “rate of glycogen synthesis” value in assay [1] (0.33 mU/ml insulin alone) was 0.52±0.05 μmol/g tissue/hr; in assay [1] (1 mU/ml insulin alone), 0.60±0.04 μmol/g tissue/hr; in assay [1] (3.33 mU/ml insulin alone) it was 1.27±0.06 μmol/g tissue/hr; in assay [1] (10 mU/ml insulin alone) it was 1.52±0.07 μmol/g tissue/hr.

For the substance “Arg-D-Ala-Phe-Tyr-me-NH2 (R[dA]FY-NH2; also: 'me' (methyl) after Tyr, site not settled) [Peptide 23]”, in assay [1] (setting [4]), the outcome was active.

Consider “Arg-Gly-Tyr-Phe-NH2 (RGYF-NH2) [Peptide 19]”, for which the outcome in assay [1] (setting [4]) was active.

On to [Orn]GFF [Peptide 17], for which, in assay [1] (setting [5]), the outcome was inactive. Moreover, the “insulin-potentiating activity” value in assay [1] is “loss of activity”.

Consider “Arg-D-Ala-Tyr-Phe-NH2 (R[dA]YF-NH2; N-terminus assumed; SMILES C[C@@H](NC(=O)[C@@H](N)CCCNC(=N)N)C(=O)N[C@@H](Cc1ccc(O)cc1)C(=O)N[C@@H](Cc1ccccc1)C(N)=O) [Peptide 24]”, for which the result in assay [1] (setting [4]) was active.

Turning to Lys-Gly-Phe-Phe (KGFF-NH2) [Peptide 16], in assay [1] (setting [5]), the result was inactive. Also, in assay [1], the “insulin-potentiating activity” value is on record as “loss of activity”.

For “Arg-Ala-Phe-Phe-NH2 (RAFF-NH2) [Peptide 13]”, the outcome in assay [1] (setting [5]) and in assay [1] (setting [4]) was inactive.

On to “Leu-Ser-Gly-Leu-Phe-Asu-Asn-Ala (LSGLFDNA-NH2; not fully specified; printed as Leu-Ser-Gly-Leu-Phe-Asu-Asn-Ala) [Peptide 9]”, for which, in assay [1] (setting [5]), the outcome was inactive. For the same substance, the “Reduction in Blood Glucose” value in assay [3] (15 min) is 0.87 ± 0.12 mmol/L; in assay [3] (30 min) it was 0.80 ± 0.14 mmol/L; in assay [3] (45 min), 0.88 ± 0.15 mmol/L; in assay [3] (60 min), 0.74 ± 0.16 mmol/L.

In the case of “Arg-Gly-Phe-Tyr-NH2 (RGFY-NH2) [Peptide 21]”, the result in assay [1] (setting [5]) and in assay [1] (setting [4]) was inactive.

As to Ala-Gly-Phe-Phe (AGFF-NH2) [Peptide 12], the outcome in assay [1] (setting [5]) was inactive.

For the substance “Leu-Ser-Lys-Leu-Phe-Asu-Asn-Ala (LSKLFDNA-NH2; not fully specified; printed as Leu-Ser-Lys-Leu-Phe-Asu-Asn-Ala) [Peptide 8]”, the “insulin-potentiating activity” value in assay [1] is reported as “active”. Further, in assay [3], the “insulin-potentiating effect on decreasing blood glucose in IVITT (in words)” value was “significant”. For the same substance, the “Reduction in Blood Glucose” value is reported as 1.08 ± 0.10 mmol/L in assay [3] (15 min), 1.35 ± 0.14 mmol/L in assay [3] (30 min), 1.92 ± 0.17 mmol/L in assay [3] (45 min) and 1.78 ± 0.17 mmol/L in assay [3] (60 min).

As for “Arg-Gly-Ala-Phe-NH2 (RGAF-NH2) [Peptide 14]”, the outcome in assay [1] (setting [5]) and in assay [1] (setting [4]) was inactive.

Take “Arg-Gly-Phe-Ala-NH2 (RGFA-NH2) [Peptide 15]”: the result in assay [1] (setting [5]) and in assay [1] (setting [4]) was inactive.
